From article PMC7260718, “Novel routes towards bioplastics from plants: elucidation of the methylperillate biosynthesis pathway from Salvia dorisiana trichomes” (Journal of Experimental Botany, 2020)
One block for each compound: values may come before it.

Tests used:
SdLiS = molecular target: T1, SdLiS (Salvia dorisiana, UniProt A0A6G5RUG7); experiment: in vitro terpene synthase assay, GC-MS; assay type: cell-based; details: product linalool; conditions by reference to earlier study
T1 construct: gene LiS; plastid targeting signal removed, pCDF-duet, E. coli
T1 sequence (A0A6G5RUG7 55-582 limits assumed): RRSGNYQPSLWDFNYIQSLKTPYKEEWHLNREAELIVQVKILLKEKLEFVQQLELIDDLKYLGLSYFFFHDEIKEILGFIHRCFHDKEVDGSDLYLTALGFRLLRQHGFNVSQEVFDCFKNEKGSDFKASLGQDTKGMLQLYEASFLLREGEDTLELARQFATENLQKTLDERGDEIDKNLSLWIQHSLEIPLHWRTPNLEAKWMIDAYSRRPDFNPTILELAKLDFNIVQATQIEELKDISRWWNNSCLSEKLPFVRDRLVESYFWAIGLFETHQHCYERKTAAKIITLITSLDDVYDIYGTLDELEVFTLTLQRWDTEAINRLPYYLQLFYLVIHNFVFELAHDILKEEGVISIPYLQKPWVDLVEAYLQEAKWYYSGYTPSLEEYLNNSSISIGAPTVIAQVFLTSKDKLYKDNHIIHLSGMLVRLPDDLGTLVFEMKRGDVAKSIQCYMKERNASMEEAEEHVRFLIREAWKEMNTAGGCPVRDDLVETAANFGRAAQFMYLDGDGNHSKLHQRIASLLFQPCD

SdPCS = molecular target: T2, SdPCS (Salvia dorisiana, UniProt A0A6G5RV47); experiment: in vitro terpene synthase assay, GC-MS; assay type: cell-based; details: products alpha-pinene and camphene; conditions by reference to earlier study
T2 construct: gene PCS; plastid targeting signal removed, pCDF-duet, E. coli
T2 sequence (A0A6G5RV47 52-589): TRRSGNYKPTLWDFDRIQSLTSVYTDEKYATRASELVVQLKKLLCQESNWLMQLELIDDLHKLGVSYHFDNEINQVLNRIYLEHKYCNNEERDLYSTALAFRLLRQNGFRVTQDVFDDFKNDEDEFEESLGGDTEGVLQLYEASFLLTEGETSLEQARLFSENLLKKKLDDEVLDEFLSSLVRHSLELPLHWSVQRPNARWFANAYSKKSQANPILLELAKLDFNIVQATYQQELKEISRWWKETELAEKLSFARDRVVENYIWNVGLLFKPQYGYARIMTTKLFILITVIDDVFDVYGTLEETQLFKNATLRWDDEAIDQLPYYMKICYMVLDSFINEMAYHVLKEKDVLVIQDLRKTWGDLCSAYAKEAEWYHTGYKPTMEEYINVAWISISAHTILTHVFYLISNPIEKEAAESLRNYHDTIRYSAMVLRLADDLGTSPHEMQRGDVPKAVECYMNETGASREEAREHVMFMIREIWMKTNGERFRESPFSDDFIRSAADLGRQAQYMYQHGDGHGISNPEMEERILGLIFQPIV

SdEuS = molecular target: T3, SdEuS (Salvia dorisiana, UniProt A0A6G5RUA2); experiment: in vitro terpene synthase assay, GC-MS; assay type: cell-based; details: product eucalyptol; conditions by reference to earlier study
T3 construct: gene EuS; plastid targeting signal removed, pCDF-duet, E. coli
T3 sequence (A0A6G5RUA2 55-578): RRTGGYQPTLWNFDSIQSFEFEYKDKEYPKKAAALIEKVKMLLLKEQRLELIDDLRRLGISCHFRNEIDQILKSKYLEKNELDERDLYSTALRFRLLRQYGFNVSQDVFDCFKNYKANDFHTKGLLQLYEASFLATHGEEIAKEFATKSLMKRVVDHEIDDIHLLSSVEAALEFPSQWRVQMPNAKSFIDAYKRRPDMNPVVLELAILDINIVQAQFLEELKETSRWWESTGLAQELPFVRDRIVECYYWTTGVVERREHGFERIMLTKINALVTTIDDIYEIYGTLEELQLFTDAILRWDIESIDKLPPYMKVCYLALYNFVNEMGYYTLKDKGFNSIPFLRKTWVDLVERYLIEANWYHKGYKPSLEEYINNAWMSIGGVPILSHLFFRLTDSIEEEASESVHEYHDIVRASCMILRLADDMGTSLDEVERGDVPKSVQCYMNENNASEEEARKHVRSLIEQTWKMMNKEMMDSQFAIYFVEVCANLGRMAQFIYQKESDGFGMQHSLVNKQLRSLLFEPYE

SdSaS = molecular target: T4, SdSaS (Salvia dorisiana, UniProt A0A6G5RTE6); experiment: in vitro terpene synthase assay, GC-MS; assay type: cell-based; details: product sabinene; conditions by reference to earlier study
T4 construct: gene SaS; plastid targeting signal removed, pCDF-duet, E. coli
T4 sequence (A0A6G5RTE6 1-538): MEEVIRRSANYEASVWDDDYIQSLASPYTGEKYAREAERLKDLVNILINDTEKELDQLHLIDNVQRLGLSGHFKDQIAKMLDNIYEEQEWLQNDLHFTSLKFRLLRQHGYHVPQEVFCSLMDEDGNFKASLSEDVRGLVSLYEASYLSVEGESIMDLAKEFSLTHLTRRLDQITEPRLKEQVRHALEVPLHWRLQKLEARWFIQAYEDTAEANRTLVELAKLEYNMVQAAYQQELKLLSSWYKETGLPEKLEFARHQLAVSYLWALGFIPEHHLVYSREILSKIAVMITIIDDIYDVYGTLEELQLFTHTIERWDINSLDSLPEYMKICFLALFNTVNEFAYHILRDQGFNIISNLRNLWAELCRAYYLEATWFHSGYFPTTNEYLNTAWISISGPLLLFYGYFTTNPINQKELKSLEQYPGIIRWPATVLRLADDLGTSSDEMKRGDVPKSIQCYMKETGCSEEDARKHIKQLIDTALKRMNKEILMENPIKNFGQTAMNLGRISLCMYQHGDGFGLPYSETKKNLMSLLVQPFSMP

SdPS = molecular target: T5, SdPS (Salvia dorisiana, UniProt A0A6G5RTD3); experiment: in vitro terpene synthase assay, GC-MS; assay type: cell-based; details: product beta-pinene; conditions by reference to earlier study
T5 construct: gene PS; plastid targeting signal removed, pCDF-duet, E. coli
T5 sequence (A0A6G5RTD3 60-600): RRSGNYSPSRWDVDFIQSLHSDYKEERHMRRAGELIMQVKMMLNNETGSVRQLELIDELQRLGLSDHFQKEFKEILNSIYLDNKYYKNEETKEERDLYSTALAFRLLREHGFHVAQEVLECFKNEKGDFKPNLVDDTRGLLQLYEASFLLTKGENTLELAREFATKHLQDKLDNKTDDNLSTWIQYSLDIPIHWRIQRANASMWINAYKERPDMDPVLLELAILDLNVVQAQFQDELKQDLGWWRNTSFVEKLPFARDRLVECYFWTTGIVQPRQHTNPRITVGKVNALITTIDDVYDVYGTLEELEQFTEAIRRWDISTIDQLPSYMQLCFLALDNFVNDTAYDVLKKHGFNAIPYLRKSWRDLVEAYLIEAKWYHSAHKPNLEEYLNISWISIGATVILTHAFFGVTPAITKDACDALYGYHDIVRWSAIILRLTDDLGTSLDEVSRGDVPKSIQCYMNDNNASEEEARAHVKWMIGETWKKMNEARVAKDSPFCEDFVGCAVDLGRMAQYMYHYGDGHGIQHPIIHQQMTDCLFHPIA

SdL7H = molecular target: T6, SdL7H (Salvia dorisiana, UniProt A0A6G5RTT4); experiment: GC-MS of perillyl alcohol in culture extract; assay type: cell-based; details: yeast co-expressing limonene synthase, 30 °C, 96 h; also N. benthamiana with SdLS
T6 construct: gene L7H; expressed in Saccharomyces cerevisiae (limonene-producing strain Sc-PftLS) from pTEF plasmid; also in Nicotiana benthamiana
T6 sequence (A0A6G5RTT4 1-494): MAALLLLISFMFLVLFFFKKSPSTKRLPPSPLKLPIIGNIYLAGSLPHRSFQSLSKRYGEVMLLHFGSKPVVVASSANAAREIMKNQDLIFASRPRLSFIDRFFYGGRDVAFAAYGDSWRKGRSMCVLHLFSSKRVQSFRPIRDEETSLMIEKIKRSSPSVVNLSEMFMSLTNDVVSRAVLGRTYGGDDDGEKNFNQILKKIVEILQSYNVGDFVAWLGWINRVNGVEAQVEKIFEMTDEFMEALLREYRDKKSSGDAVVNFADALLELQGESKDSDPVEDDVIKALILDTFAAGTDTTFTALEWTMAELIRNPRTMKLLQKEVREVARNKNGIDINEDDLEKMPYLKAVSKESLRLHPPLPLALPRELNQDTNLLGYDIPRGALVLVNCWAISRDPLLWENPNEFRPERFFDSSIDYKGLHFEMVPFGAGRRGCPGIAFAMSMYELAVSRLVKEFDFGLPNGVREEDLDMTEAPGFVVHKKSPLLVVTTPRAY

SdPAOMT = molecular target: T7, SdPAOMT (Salvia dorisiana, UniProt A0A6G5RV57); experiment: GC-MS of methyl ester product; assay type: biochemical; details: E. coli cell-free extract; 1 mM substrate, 1.28 mM SAM (from stocks), Tris-HCl pH 7.0, room temperature, 1 h
T7 construct: gene PAOMT; full length, pCDF-duet, E. coli BL21(DE3) cell-free extract
T7 sequence (A0A6G5RV57 1-359): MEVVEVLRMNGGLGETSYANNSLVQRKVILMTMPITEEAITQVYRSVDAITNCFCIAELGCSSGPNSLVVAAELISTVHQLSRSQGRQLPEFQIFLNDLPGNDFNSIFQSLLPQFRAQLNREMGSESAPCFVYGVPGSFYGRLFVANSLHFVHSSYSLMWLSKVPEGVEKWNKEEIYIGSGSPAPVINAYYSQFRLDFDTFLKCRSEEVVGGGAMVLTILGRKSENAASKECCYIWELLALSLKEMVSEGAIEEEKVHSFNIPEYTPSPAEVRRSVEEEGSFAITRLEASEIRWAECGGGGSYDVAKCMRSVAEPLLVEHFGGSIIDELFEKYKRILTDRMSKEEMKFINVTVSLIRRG

SdOMT4 = molecular target: T8, SdOMT4 (Salvia dorisiana, UniProt A0A6G5RUB3); experiment: headspace GC-MS of methylperillate; details: N. benthamiana leaves co-infiltrated with perillic acid; minor activity
T8 construct: gene OMT4; transient expression in Nicotiana benthamiana leaves
T8 sequence (A0A6G5RUB3 1-349): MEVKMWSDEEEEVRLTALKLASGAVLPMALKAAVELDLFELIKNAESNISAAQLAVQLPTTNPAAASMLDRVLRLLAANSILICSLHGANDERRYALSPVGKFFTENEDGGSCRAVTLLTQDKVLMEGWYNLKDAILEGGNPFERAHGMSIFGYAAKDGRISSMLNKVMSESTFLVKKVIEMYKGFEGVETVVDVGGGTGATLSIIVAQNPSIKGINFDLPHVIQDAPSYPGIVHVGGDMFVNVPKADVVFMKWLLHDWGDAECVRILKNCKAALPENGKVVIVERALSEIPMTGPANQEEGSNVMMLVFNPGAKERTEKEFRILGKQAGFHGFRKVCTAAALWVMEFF

SdOMT9 = molecular target: T9, SdOMT9 (Salvia dorisiana, UniProt A0A6G5RTF7); experiment: headspace GC-MS of methylperillate; details: N. benthamiana leaves co-infiltrated with perillic acid; minor activity
T9 construct: gene OMT9; transient expression in Nicotiana benthamiana leaves
T9 sequence (A0A6G5RTF7 1-344): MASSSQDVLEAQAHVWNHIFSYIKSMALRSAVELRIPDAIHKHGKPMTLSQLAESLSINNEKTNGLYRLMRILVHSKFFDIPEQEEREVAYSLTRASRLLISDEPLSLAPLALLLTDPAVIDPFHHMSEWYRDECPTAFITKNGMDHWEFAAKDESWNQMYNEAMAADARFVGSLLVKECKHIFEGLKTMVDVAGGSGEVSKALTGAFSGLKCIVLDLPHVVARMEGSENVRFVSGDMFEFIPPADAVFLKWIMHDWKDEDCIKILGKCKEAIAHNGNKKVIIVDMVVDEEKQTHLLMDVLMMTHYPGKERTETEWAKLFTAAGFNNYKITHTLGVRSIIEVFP

SdPOHDH = molecular target: T10, SdPOHDH (Salvia dorisiana, UniProt A0A6G5RUH8); experiment: LC-MS of perillyl aldehyde markers; details: N. benthamiana leaves infiltrated with 400 µM perillyl alcohol, 4 h
T10 construct: gene POHDH; transient expression in Nicotiana benthamiana leaves (pB7WG2)
T10 sequence (A0A6G5RUH8 1-370): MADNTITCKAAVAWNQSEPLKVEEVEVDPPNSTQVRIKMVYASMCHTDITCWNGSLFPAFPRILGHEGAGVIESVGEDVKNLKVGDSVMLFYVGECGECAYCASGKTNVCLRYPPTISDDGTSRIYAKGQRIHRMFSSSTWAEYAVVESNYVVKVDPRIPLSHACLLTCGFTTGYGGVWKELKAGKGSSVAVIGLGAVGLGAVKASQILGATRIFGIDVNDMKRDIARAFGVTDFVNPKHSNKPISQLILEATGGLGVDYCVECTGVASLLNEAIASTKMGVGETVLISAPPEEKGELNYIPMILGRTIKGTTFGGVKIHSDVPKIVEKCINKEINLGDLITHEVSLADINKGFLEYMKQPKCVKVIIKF

in vitro terpene synthase assay, GC-MS (SdLiS): a linalool synthase SdLiS | in vitro terpene synthase assay, GC-MS (SdPCS): an α-pinene/camphene synthase SdPCS | in vitro terpene synthase assay, GC-MS (SdEuS): a eucalyptol synthase SdEuS | in vitro terpene synthase assay, GC-MS (SdSaS): a sabinene synthase SdSaS
SMILES: CC(C)=CCC/C(C)=C/COP(=O)(O)OP(=O)(O)O [geranyl diphosphate]
in vitro terpene synthase assay, GC-MS (SdPS): characterized by in vitro assays, including a β-pinene synthase SdPS

SMILES: C=C(C)[C@@H]1CC=C(C)CC1 [limonene]
GC-MS of perillyl alcohol in culture extract (SdL7H): indicating that limonene is indeed used as a substrate

SMILES: C=C(C)[C@@H]1CC=C(C(=O)O)CC1 [perillic acid]
GC-MS of methyl ester product (SdPAOMT): Cell-free extracts were tested with BA, SA, and PA as substrates, and SAM as methyl donor | headspace GC-MS of methylperillate (SdOMT4): only SdOMT4 and SdOMT9 showed minor MePA formation | headspace GC-MS of methylperillate (SdOMT9): only SdOMT4 and SdOMT9 showed minor MePA formation

LC-MS of perillyl aldehyde markers (SdPOHDH): SdPOHDH converted POH to PAldH
SMILES: C=C(C)[C@@H]1CC=C(CO)CC1 [perillyl alcohol]

SMILES: O=C(O)c1ccccc1O [salicylic acid]
GC-MS of methyl ester product (SdPAOMT): Methylated products were detected for all three substrates
